# Tested on: CD8^+ T cell clone T81
# Assay: Outgrowth of T81 CTL under G418 drug selection
# Assay type: cell-based, mouse
# Details: parental T81 cells, doses used for selection
# Procedure: • A. Selection of CD8^+T cell clone T81 transduced with retroviral vector L.IL-1RSN encoding murine IL-1R. The retroviral vector L.IL-1RSN encoding the murine IL-1 receptor was introduced into the tumor specific CD3^+, CD8^+ T cell clone T81 as follows. T81 is specific for an antigen expressed on the K1735 mouse melanoma cell line. T81 was propagated by stimulation every 8-10 days with tumor antigen and irradiated syngeneic splenocytes as feeder cells. Recombinant IL-2 (50 U/ml) was added to the cultures 48 hours following stimulation. […] The cells were analyzed for M5 binding on a Beckton-Dickinson FACscan analyzer. […] The IL-1 receptors on the T81 cells infected with the L.IL-1RSN vector were analyzed for ^125I-IL-1α binding as previously described (Dower et al., Nature (Lond) 324 :266,1986). […] Nonspecific binding of ^125I-IL-1 was measured by incubation in the presence of an excess of unlabelled IL-1. At the end of the incubation, bound and free ^125I-IL-1 were separated by centrifugation over a phthalate oil mixture and the amount of radiolabel in each fraction measured. The data were corrected for non-specific binding and then analyzed by nonlinear least square fitting to estimate the number of IL-1R/cell. […]
compound,measurement,value
CN[C@@H]1[C@@H](O)[C@@H](O[C@@H]2[C@@H](O)[C@H](O[C@H]3O[C@H]([C@@H](C)O)[C@@H](O)[C@H](O)[C@H]3N)[C@@H](N)C[C@H]2N)OC[C@]1(C)O [G418],toxicity of G418 to cells,toxic to the parental cells
